Where two headings read alike, the source gives them in different places.
Experiments:
cyclin B/CDK1 enzyme = target: T1, cyclin B/CDK1 enzyme (Homo sapiens, UniProt P06493); experiment: CDK1 ELISA kinase assay (phospho-Rb ser 795 detection); type: biochemical
T1 construct: purchased New England BioLabs; host or cells: Sf9 insect cells, recombinant baculovirus
How it was run: (§1)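 Inhibition was derived from A450 relative to control wells lacking compound, following an anti-phospho-Rb Ser795 sandwich of HRP detection. The reactions combined coated GST-Rb fragment, 200 μM ATP and baculovirus-expressed cyclin/CDK enzymes, incubated for 1 h at 30° C.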

SK-UT-1B = experiment: In Vitro Cellular Activity (Table III), SK-UT-1B; type: cell-based; details: SK-UT-1B cells
HCT-116 = experiment: Cytotoxicity assay (SRB), HCT-116; type: cell-based; details: read-out: In Vitro Cellular Activity IC50 HCT116
How it was run: (§2)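 Percentage survival is derived from SRB absorbance (540 nm) versus untreated cells. Exposures were 3 days, except 6 days for BT474, at 37 °C and 7% CO2.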

MCF-7 = experiment: Cytotoxicity assay (SRB), MCF-7; type: cell-based; details: read-out: In Vitro Cellular Activity IC50 MCF-7
How it was run: as §2

cyclin E/CDK2 enzyme = target: T2, cyclin E/CDK2 enzyme (Homo sapiens, UniProt P24941); experiment: CDK2 ELISA kinase assay (phospho-Rb ser 795 detection); type: biochemical
T2 construct: made in house; host or cells: Sf9 insect cells, recombinant baculovirus
How it was run: as §1

cyclin D1/cdk 4 enzyme = target: T3, cyclin D1/cdk 4 enzyme (Homo sapiens, UniProt P11802); experiment: CDK4 ELISA kinase assay (phospho-Rb ser 795 detection); type: biochemical
T3 construct: made in house; host or cells: Sf9 insect cells, recombinant baculovirus
How it was run: as §1

BT474 = experiment: Cytotoxicity assay (SRB), BT474; type: cell-based; details: read-out: In Vitro Cellular Activity IC50 BT474
How it was run: as §2

LoVo = experiment: Cytotoxicity assay (SRB), LoVo; type: cell-based; details: read-out: In Vitro Cellular Activity IC50 LOVO
How it was run: as §2

[1] = I.V. and P.O. Dosing in Mice; type: in vivo; details: for AUC(0-inf) / bioavailability: mouse, in vivo; for bioavailability: po 50 mg/kg vs i.v. 2 mg/kg
[2] = In Vitro Enzyme Assays, read-out: CDK1 IC50
[3] = Homo sapiens, HCT-116, 72 h, HCT116 cells, SRB, three days
[4] = Homo sapiens, MCF7, 72 h, MCF-7 cells, SRB, three days
[5] = In Vitro Enzyme Assays, read-out: CDK2 IC50
[6] = In Vitro Enzyme Assays, 200 μM ATP, read-out: CDK4 IC50
[7] = Homo sapiens, BT-474, 144 h, BT474 cells, SRB, 6 days
[8] = Homo sapiens, LoVo, 72 h, LoVo cells, SRB, three days
[9] = iv, 2 mg/kg, dose i.v. 2 mg/kg, read-out: aucinf obs (i.v.)
[10] = po, 50 mg/kg, dose po 50 mg/kg, read-out: aucinf obs (po)
[11] = In Vitro Enzyme Assay, cyclin B/CDK1, read-out: CDK1 IC50
[12] = Homo sapiens, BT-474, 144 h, BT474 cells, 6 days, SRB
[13] = Homo sapiens, HCT-116, 72 h, HCT116 cells, 3 days, SRB
[14] = Homo sapiens, MCF7, 72 h, MCF-7 cells, 3 days, SRB
[15] = In Vitro Enzyme Assay, cyclin E/CDK2, read-out: CDK2 IC50
[16] = In Vitro Enzyme Assay, cyclin D1/cdk 4, read-out: CDK4 IC50
[17] = Homo sapiens, LoVo, 72 h, LoVo cells, 3 days, SRB

T3 sequence (P11802 whole entry, species assumed): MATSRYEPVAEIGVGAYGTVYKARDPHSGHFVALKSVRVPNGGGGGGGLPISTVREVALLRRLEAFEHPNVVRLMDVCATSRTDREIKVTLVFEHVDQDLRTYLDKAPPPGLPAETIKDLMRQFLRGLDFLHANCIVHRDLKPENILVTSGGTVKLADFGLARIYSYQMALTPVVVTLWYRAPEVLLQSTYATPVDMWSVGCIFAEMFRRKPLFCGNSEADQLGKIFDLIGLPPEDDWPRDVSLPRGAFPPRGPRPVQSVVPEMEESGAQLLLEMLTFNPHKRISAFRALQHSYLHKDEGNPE
T3 sequence (P24385 whole entry partner, species assumed): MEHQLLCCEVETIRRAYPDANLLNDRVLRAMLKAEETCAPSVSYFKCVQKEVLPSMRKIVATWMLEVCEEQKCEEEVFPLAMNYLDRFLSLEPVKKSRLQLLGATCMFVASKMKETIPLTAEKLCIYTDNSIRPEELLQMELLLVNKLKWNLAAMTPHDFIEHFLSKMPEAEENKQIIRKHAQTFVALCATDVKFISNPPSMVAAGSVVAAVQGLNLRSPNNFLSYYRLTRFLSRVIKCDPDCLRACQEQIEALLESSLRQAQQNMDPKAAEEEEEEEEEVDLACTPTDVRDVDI
T1 sequence (P06493 whole entry): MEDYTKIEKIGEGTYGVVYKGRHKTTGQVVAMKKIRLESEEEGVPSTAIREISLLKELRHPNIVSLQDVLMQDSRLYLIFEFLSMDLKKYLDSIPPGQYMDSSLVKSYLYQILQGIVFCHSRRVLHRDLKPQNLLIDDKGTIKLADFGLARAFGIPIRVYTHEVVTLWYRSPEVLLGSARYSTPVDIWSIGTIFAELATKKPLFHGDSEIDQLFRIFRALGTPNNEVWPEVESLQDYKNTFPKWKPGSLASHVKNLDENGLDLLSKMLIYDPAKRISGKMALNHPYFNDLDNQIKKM
T1 sequence (P14635 whole entry partner): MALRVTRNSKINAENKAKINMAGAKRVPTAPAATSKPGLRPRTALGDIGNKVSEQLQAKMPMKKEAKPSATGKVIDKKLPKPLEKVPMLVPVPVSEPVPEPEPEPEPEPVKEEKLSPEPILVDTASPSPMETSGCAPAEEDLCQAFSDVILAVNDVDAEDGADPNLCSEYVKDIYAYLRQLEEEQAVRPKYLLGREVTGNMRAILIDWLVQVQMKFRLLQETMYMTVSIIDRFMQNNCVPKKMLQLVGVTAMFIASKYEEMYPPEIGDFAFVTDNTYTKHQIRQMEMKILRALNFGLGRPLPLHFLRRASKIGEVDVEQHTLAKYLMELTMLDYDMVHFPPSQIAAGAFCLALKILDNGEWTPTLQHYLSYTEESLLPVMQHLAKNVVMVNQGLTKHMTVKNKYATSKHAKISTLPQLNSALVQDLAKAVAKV

Row | IC50 (cyclin B/CDK1 enzyme; [2]) [µM] | IC50 (SK-UT-1B; Homo sapiens, Skut1B) [µM] | melting point | Cl_obs ([1]; dose i.v. 2 mg/kg) [mL/min/kg] | Vss_obs ([1]; dose i.v. 2 mg/kg) [L/kg] | HL_Lambda_z ([1]; dose po 50 mg/kg) [h] | AUC(0-inf) [1, 9] [ng·h/mL] | AUC(0-inf) [1, 10] [ng·h/mL] | bioavailability ([1]; po, 50 mg/kg) [%] | IC50 (cyclin B/CDK1 enzyme; [11]) [µM] | IC50 (cyclin E/CDK2 enzyme; [15]) [µM] | Molecule | IC50 (HCT-116; [3]) [µM] | IC50 (MCF-7; [4]) [µM] | IC50 (BT474; [12]) [µM] | IC50 (HCT-116; [13]) [µM] | IC50 (MCF-7; [14]) [µM] | IC50 (LoVo; [17]) [µM] | further results
1 | > 27 | 21.4 | – | – | – | – | – | – | – | – | – | O=C1NC(=O)c2ccccc2/C1=C/Nc1ccc(CN2CCOCC2)cc1 [Example 19, (4Z)-4-({[4-(Morpholin-4-ylmethyl)phenyl]amino}methylene)isoquinoline-1,3(2H,4H)-dione] | 20 | 15.9 | – | – | – | – | IC50 (cyclin E/CDK2 enzyme; [5]): 21.6 µM; IC50 (cyclin D1/cdk 4 enzyme; [6]): 10.7 µM
2 | – | 5.4 | – | – | – | – | – | – | – | – | – | O=C1NC(=O)c2ccccc2/C1=C/Nc1cccc(CCN2CCCC2)c1 [Example 22, (4Z)-4-({[3-(2-Pyrrolidin-1-ylethyl)phenyl]amino}methylene)isoquinoline-1,3(2H,4H)-dione] | 11 | 10 | – | – | – | – | IC50 (BT474; [7]): 21 µM; IC50 (LoVo; [8]): 19 µM
3 | > 29 | 16.2 | – | – | – | – | – | – | – | – | – | CN(C)Cc1ccc(N/C=C2\C(=O)NC(=O)c3ccccc32)cc1 [Example 25, (4Z)-4-[({4[(Dimethylamino)methyl]phenyl}amino)methylene]isoquinolin-1,3(2H,4H)-dione] | 11.5 | 5.6 | – | – | – | – | IC50 (cyclin E/CDK2 enzyme; [5]): 22.7 µM; IC50 (cyclin D1/cdk 4 enzyme; [6]): 6.6 µM
4 | > 50 | – | 224 to 226 °C | 37 | 11 | 7.4 | 901 | 4100 | 18.2 | – | – | CN1CCN(c2ccc(N/C=C3\C(=O)NC(=O)c4ccc(-c5ccsc5)cc43)cc2)CC1 [Example 107, (4Z)-4-({[4-(4-Methylpiperazin-1-yl)phenyl]amino}methylene)-6-thien-3-ylisoquinoline-1,3(2H,4H)-dione] | 1.4 | 2.3 | – | – | – | – | IC50 (BT474; [7]): 2.5 µM; IC50 (cyclin E/CDK2 enzyme; [5]): > 50 µM; IC50 (cyclin D1/cdk 4 enzyme; [6]): 0.08 µM; IC50 (LoVo; [8]): 2.3 µM
5 | – | – | 292 to 293 °C (dec.) | 35 | 2.4 | – | 952 | – | 0 | 27.9 | 2.2 | O=C1NC(=O)c2ccc(I)cc2/C1=C/NCc1cc(O)c(-c2ccccc2)cn1 [Example 524, (4Z)-{[(4-Hydroxy-5-phenyl-pyridin-2-ylmethyl)-amino]-methylene}-6-iodo-4H-isoquinoline-1,3-dione] | – | – | 0.03 | 0.11 | 0.89 | 0.12 | IC50 (cyclin D1/cdk 4 enzyme; [16]): 0.04 µM
6 | – | – | 213 to 228 °C (dec.) | 5 | 0.5 | 3.4 | 6060 | 1400 | 0.9 | 13.5 | 2.3 | O=C1NC(=O)c2ccc(I)cc2/C1=C/NCc1cc(O)c(-c2ccoc2)cn1 [Example 527, (4Z)-{[(5-Furan-3-yl-4-hydroxy-pyridin-2-ylmethyl)-amino]-methylene}-6-iodo-4H-isoquinoline-1,3-dione] | – | – | 0.09 | 0.55 | 2.7 | 0.49 | IC50 (cyclin D1/cdk 4 enzyme; [16]): 0.03 µM
7 | – | – | 162 to 178 °C (dec.) | 15 | 0.2 | 5.3 | 2240 | 7200 | 13 | – | 0.96 | CCCOc1cnc(CN/C=C2\C(=O)NC(=O)c3ccc(C(C)(C)C)cc32)cc1O [Example 530, 6-tert-Butyl-4-{[(4-hydroxy-5-propoxy-pyridin-2-ylmethyl)-amino]-methylene}-4H-isoquinoline-1,3-dione] | – | – | 0.24 | 0.43 | 0.7 | 0.28 | –
8 | – | – | 195 to 218 °C (dec.) | 23 | 0.9 | 5.2 | 1450 | 879 | 2.5 | 16.3 | 2.6 | CC(C)(C)c1ccc2c(c1)/C(=C/NCc1cc(O)c(-c3ccccc3)cn1)C(=O)NC2=O [Example 531, 6-tert-Butyl-4-{[(4-hydroxy-5-phenyl-pyridin-2-ylmethyl)-amino]-methylene}-4H-isoquinoline-1,3-dione] | – | – | 0.04 | 0.15 | 0.7 | 0.1 | –
9 | – | – | – | 140 | 4.1 | 1.9 | 238 | 1240 | 21 | 13.1 | 4 | CC(C)(C)c1ccc2c(c1)/C(=C/NCc1ccc(-c3ccoc3)c(O)c1)C(=O)NC2=O [Example 535, 6-tert-Butyl-4-[(4-furan-3-yl-3-hydroxy-benzylamino)-methylene]-4H-isoquinoline-1,3. -dione] | – | – | 0.51 | 0.86 | 2 | 0.63 | IC50 (cyclin D1/cdk 4 enzyme; [16]): 0.02 µM
10 | – | – | 263 to 266 °C (dec.) | 5 | 0.2 | 7.1 | 6630 | 1040 | 0.63 | – | 1.2 | CCCOc1cnc(CN/C=C2\C(=O)NC(=O)c3ccc(C4CCCC4)cc32)cc1O [Example 538, 6-Cyclopentyl-4-{[(4-hydroxy-5-propoxy-pyridin-2-ylmethyl)-amino]-methylene}-4H-isoquinoline-1,3-dione] | – | – | 0.06 | 0.15 | 0.3 | 0.07 | –
11 | > 28 | 12.7 | – | – | – | – | – | – | – | – | – | CN1CCN(c2ccc(N/C=C3\C(=O)NC(=O)c4ccccc43)cc2)CC1 [compound 4] | 9.1 | 5.5 | – | – | – | – | IC50 (BT474; [7]): 18 µM; IC50 (LoVo; [8]): 13 µM
12 | > 33 | 4.3 | – | – | – | – | – | – | – | – | – | O=C1NC(=O)c2ccccc2/C1=C/Nc1ccc2cn[nH]c2c1 [compound 7] | 6.57 | 11.2 | – | – | – | – | IC50 (cyclin E/CDK2 enzyme; [5]): 5.6 µM; IC50 (cyclin D1/cdk 4 enzyme; [6]): 9.5 µM
13 | – | – | – | – | – | – | – | – | – | – | – | (4Z)-4-[({3-Chloro-4-{(4chlorobenzyl)oxy]phenyl}amino)methylene]isoquinoline-1,3(2H,4H-dione [Example 15] | – | – | – | – | – | – | IC50 (SK-UT-1B): 11.6 µM; IC50 (BT474; BT474 cells, SRB, 6 days): > 50 µM; IC50 (HCT-116; HCT116 cells, SRB, three days): 10.3 µM; IC50 (MCF-7; MCF-7 cells, SRB, three days): 28 µM; IC50 (LoVo; LoVo cells, SRB, three days): 50 µM

Row | Molecule | IC50 (cyclin B/CDK1 enzyme; [2]) [µM] | IC50 (SK-UT-1B; Homo sapiens, Skut1B) [µM] | melting point | Cl_obs ([1]; dose i.v. 2 mg/kg) [mL/min/kg] | Vss_obs ([1]; dose i.v. 2 mg/kg) [L/kg] | HL_Lambda_z ([1]; dose po 50 mg/kg) [h] | AUC(0-inf) [1, 9] [ng·h/mL] | AUC(0-inf) [1, 10] [ng·h/mL] | bioavailability ([1]; po, 50 mg/kg) [%] | IC50 (cyclin B/CDK1 enzyme; [11]) [µM] | IC50 (cyclin E/CDK2 enzyme; [15]) [µM] | IC50 (HCT-116; [3]) [µM] | IC50 (MCF-7; [4]) [µM] | IC50 (BT474; [12]) [µM] | IC50 (HCT-116; [13]) [µM] | IC50 (MCF-7; [14]) [µM] | IC50 (LoVo; [17]) [µM] | further results
14 | O=C1NC(=O)c2ccc(I)cc2/C1=C/NCc1ccn(-c2ccsc2)c(=O)c1 [Example 539, (4Z)-6-Iodo-4-[({[2-oxo-1-(3-thienyl)-1,2-dihydropyridin-4-yl]methyl}amino)methylene]isoquinoline-1,3(2H,4H)-dione] | – | – | – | 21 | 0.3 | 0.8 | 1560 | 44 | 0.12 | > 50 | 41.5 | – | – | – | – | – | – | IC50 (BT474; Homo sapiens, BT-474, 144 h): 0.33 µM; IC50 (HCT-116; Homo sapiens, HCT-116, 72 h): 0.34 µM; IC50 (MCF-7; Homo sapiens, MCF7, 72 h): 0.24 µM; IC50 (cyclin D1/cdk 4 enzyme; [16]): 0.29 µM; IC50 (LoVo; Homo sapiens, LoVo, 72 h): 0.16 µM
